Measurements published in the NIST ThermoML archive (doi:10.1016/j.tca.2013.12.016).

Assay: mn = molality of the nth substance listed, in mol/kg
Conditions: 101 kPa, Liquid; for speed of sound: Linear variable-path acoustic interferometer; for mass density: Vibrating tube method

COC(C)=O [methyl ethanoate] + CCO
Conditions	mass density, 298.15 K [kg/m3]	mass density, 303.15 K [kg/m3]	mass density, 308.15 K [kg/m3]	mass density, 313.15 K [kg/m3]	speed of sound, 298.15 K [m/s]	speed of sound, 303.15 K [m/s]	speed of sound, 308.15 K [m/s]	speed of sound, 313.15 K [m/s]
m2 = 0.0152	927	920.5	914.2	908	1153	1134	1113	1089
m2 = 0.0357	926.8	920.3	914	907.8	1152	1131	1110	1086
m2 = 0.065	926.6	920.1	913.8	907.6	1150	1130	1108	1084
m2 = 0.102	926.3	919.8	913.5	907.3	1149	1128	1107	1083
m2 = 0.2098	925.5	919	912.7	906.5	1146	1125	1104	1080
m2 = 0.3417	924.5	918	911.7	905.5	1143	1122	1101	1077
m2 = 0.5068	923.1	916.7	910.4	904.1	1140	1119	1098	1074
m2 = 0.6769	921.8	915.4	909.1	902.8	1137	1116	1095	1071
m2 = 0.9775	919.5	913.1	906.9	900.6	1134	1113	1092	1068
m2 = 1.702	914.4	908	901.9	895.5	1131	1110	1089	1065
m2 = 2.712	907.8	901.5	895.4	889	1128	1107	1086	1062
m2 = 3	905.8	899.7	893.5	887.1	1122	1104	1080	1056

CCOC(C)=O [ethyl acetate] + CO
Conditions	mass density, 298.15 K [kg/m3]	mass density, 303.15 K [kg/m3]	mass density, 308.15 K [kg/m3]	mass density, 313.15 K [kg/m3]	speed of sound, 298.15 K [m/s]	speed of sound, 303.15 K [m/s]	speed of sound, 308.15 K [m/s]	speed of sound, 313.15 K [m/s]
m2 = 0.0111	894.5	888.9	883	877.1	1110	1086	1059	1038
m2 = 0.0223	894.6	888.8	882.9	877	1113	1089	1062	1041
m2 = 0.0495	894.7	888.7	882.8	876.9	1116	1092	1065	1044
m2 = 0.1474	894.9	888.6	882.7	876.8	1119	1095	1068	1047
m2 = 0.2878	894.7	888.5	882.4	876.4	1122	1098	1071	1050
m2 = 0.3556	894.4	888.3	882.1	876.2	1125	1101	1074	1053
m2 = 0.4905	893.6	887.7	881.6	875.8	1128	1104	1077	1056
m2 = 0.7268	892.2	886.4	880.6	874.8	1131	1107	1080	1059
m2 = 0.974	890.5	884.9	879.1	873.8	1134	1110	1089	1062
m2 = 1.409	888.2	882.6	877	871.6	1137	1113	1092	1065
m2 = 2.445	886.1	879.8	873.8	868.4	1140	1116	1095	1068
m2 = 3.001	886	879.1	873.1	867.9	1143	1122	1098	1071

CCOC(C)=O [ethyl acetate] + CCO
Conditions	mass density, 298.15 K [kg/m3]	mass density, 303.15 K [kg/m3]	mass density, 308.15 K [kg/m3]	mass density, 313.15 K [kg/m3]	speed of sound, 298.15 K [m/s]	speed of sound, 303.15 K [m/s]	speed of sound, 308.15 K [m/s]	speed of sound, 313.15 K [m/s]
m2 = 0.0124	894.9	888.4	882.9	877.2	1152	1135	1116	1093
m2 = 0.0357	894.7	888.2	882.7	877	1151	1134	1115	1091
m2 = 0.0713	894.4	887.9	882.4	876.4	1150	1133	1114	1090
m2 = 0.1025	894.2	887.7	882.2	876.5	1149	1130	1110	1089
m2 = 0.2087	893.5	887	881.5	875.8	1147	1128	1098	1077
m2 = 0.3504	892.6	886.1	880.6	874.9	1143	1123	1092	1069
m2 = 0.5065	891.7	885.3	879.8	874	1140	1119	1091	1067
m2 = 0.6771	890.7	884.4	878.9	873.2	1139	1116	1086	1062
m2 = 0.9772	889.1	883	877.4	871.8	1136	1113	1083	1059
m2 = 1.701	885.5	879.4	874	868.3	1131	1110	1080	1056
m2 = 2.712	880.6	874.7	869.3	863.7	1128	1107	1074	1053
m2 = 3.001	879.4	873.5	868.1	862.5	1122	1101	1068	1044
